For the series, the target named is T1, Aryl hydrocarbon receptor (Homo sapiens, UniProt P35869).
T1 sequence (P35869 whole entry): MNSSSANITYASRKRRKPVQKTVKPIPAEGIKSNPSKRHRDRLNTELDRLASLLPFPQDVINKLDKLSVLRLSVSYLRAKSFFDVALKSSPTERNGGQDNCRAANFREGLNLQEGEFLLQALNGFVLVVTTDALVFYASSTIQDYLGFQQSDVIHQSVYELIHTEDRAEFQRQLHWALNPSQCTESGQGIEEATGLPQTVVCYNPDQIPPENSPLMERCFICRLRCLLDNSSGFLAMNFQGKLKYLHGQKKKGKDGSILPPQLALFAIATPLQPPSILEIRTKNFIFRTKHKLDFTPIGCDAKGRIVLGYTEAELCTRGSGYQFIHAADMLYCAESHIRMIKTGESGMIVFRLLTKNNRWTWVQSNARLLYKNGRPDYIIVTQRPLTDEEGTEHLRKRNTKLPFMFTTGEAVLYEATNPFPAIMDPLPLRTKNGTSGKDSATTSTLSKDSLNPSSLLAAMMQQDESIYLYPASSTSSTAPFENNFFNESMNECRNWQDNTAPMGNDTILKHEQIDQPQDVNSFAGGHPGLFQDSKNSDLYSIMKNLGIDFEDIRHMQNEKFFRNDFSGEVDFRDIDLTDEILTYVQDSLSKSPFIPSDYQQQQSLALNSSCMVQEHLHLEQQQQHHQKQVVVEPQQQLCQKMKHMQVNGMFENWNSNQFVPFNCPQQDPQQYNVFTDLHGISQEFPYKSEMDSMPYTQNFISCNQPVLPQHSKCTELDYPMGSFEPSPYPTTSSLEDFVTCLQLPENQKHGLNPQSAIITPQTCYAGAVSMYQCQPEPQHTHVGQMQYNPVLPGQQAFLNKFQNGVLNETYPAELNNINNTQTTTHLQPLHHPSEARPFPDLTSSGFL
Kind of series: Compound tested for its binding to human Orphan receptor (AhR); Active.
For the compound `Clc1cc2c(cc1Cl)Oc1cc(Cl)c(Cl)cc1O2` [2,3,7,8-TETRACHLORODIBENZO-P-DIOXIN], the outcome was Active.

As to `c1ccc2c(c1)cc1ccc3cccc4ccc2c1c34` [BENZO[DEF]CHRYSENE], the result was Active.

For the compound `O=c1cc(-c2ccccc2)oc2ccc3ccccc3c12` [BETA-NAPHTHOFLAVONE], the outcome was Active.

These data come from ChEMBL document CHEMBL1146684, “An electrochemical device for the assay of the interaction between a dioxin receptor and its various ligands” (Bioorg Med Chem Lett, 2004).
